According to patent publication US5138069A (E. I. Du Pont de Nemours and Company, priority 1988, dated 1992):
Read-outs that look alike come from different tables or passages of the source. Values belong to the compound of their own block, whether it stands above or below them.

Legend:
[1] = tested on: AII; settings: cited from earlier work
[2] = tested on: renal vasoconstrictor effect of NSAID; settings: cited from earlier work
[3] = tested on: Plasma renin activity (PRA); assay: Plasma renin activity in conscious dogs; type: in vivo; settings: three dogs, furosemide 10 mg/kg im at 18 and 2 hours before; PRA before 1.5±0.5
Method: (§1) The hypotensive effects of 2-butyl-4-chloro-1-[2'-(1H-tetrazol-5-yl)biphenyl-4-yl)methyl]-5-hydroxymethylimidazole sodium salt were compared before and after furosemide administration to conscious dogs. […] Plasma renin activity (PRA) in these animals was 1.5±0.5 ng AI/ml/hr. Four days later, furosemide was given to three of these dogs at 10 mg/kg im at 18 and 2 hours before the experiment and increased PRA to 19.9±7.2 ng AI/ml/hr. […] Thus a combined therapy of these two classes of drugs will be likely to increase the response rate to therapy among hypertensive patients.

[4] = tested on: pressor response to AII; assay: Inhibition of the pressor response to AII in conscious dogs; type: in vivo
Method: as §1

[5] = tested on: conscious dogs; assay: Hypotensive effects in conscious dogs before and after furosemide; type: in vivo
Method: as §1

[6] = tested on: Renal Hypertensive Rats; assay: Antihypertensive effects in renal hypertensive rats; type: in vivo; settings: Rattus norvegicus; for minimal effective dose at 3 mg/kg / minimal effective dose at 30 mg/kg: Table 26; for minimal effective dose at 3 mg/kg / minimal effective dose at 10 mg/kg: intravenous; for minimal effective dose at 30 mg/kg / minimal effective dose at 100 mg/kg: oral; for minimal effective dose at 10 mg/kg / minimal effective dose at 100 mg/kg: Table 25; for minimal effective dose at 10 mg/kg: 10 mg/kg or less; for minimal effective dose at 100 mg/kg: 100 mg/kg or less
Method in brief: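 Renal hypertensive rats (renin-driven AII elevation) dosed orally at 100 mg/kg and/or i.v. via jugular cannula at 10 mg/kg; a second set used 30 mg/kg oral and 3 mg/kg i.v. Arterial pressure recorded continuously via carotid cannula and compared with pretreatment levels.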

[7] = molecular target: AII receptor; assay: Angiotensin II receptor binding (displacement of 3H-AII); settings: read-out: Angiotensin II Receptor Binding IC50, rat adrenal cortical microsomes, 2 nM 3H-AII, 1 hour, room temperature
Method in brief: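 The receptor source was rat adrenal cortical microsomes in Tris buffer, incubated with 2 nM ³H-AII plus or minus test compound for 1 h at room temperature. Bound and free ligand were separated by rapid filtration on glass-fibre filters. Filter-bound ³H-AII was counted by scintillation.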

[8] = Table 25, tested as sodium salt

Structure (SMILES): CNCC(=O)N[C@@H](CCCN=C(N)N)C(=O)N[C@H](C(=O)N[C@@H](Cc1ccc(O)cc1)C(=O)N[C@H](C(=O)N[C@@H](Cc1cnc[nH]1)C(=O)N1CCC[C@H]1C(=O)N[C@@H](C)C(=O)O)C(C)C)C(C)C [Saralasin, [Sar^1, Ala^8] AII]
antagonism of the actions of AII ([1]; Pals et al. 1971, pithed rats): one of the most potent competitive antagonists of the actions of AII
arterial pressure ([1]; mammals and man, elevated pressure dependent on circulating AII): lower arterial pressure in mammals and man
oral efficacy ([1]; oral doses): oral doses being ineffective
pressor effects ([1]; when the pressure is not sustained by AII): generally elicits pressor effects when the pressure is not sustained by AII
effect on renal vasoconstrictor effect of indomethacin and meclofenamate ([2]; dogs): inhibit the renal vasoconstrictor effect of indomethacin and meclofenamate in dogs

Structure (SMILES): NS(=O)(=O)c1cc(C(=O)O)c(NCc2ccco2)cc1Cl [furosemide]
Plasma renin activity (PRA) after furosemide [3]: 19.9±7.2 ng AI/ml/hr

Structure (SMILES): C[C@H](CS)C(=O)N1CCC[C@H]1C(=O)O [captopril, Captopril]
effect on renal vasoconstrictor effect of indomethacin ([2]; dogs with non-hypotensive hemorrhage): reverse the renal vasoconstrictor effect of indomethacin in dogs

Structure (SMILES): CCCCc1nc(Cl)c(CO)n1Cc1ccc(-c2ccccc2-c2nnn[nH]2)cc1
inhibition of pressor response to AII, before furosemide ([4]; cumulative iv 0.3 to 3 mg/kg, AII 0.1 μg/kg iv, 10 min post dose): effective in inhibiting the pressor response to AII
inhibition of pressor response to AII, after furosemide ([4]; iv, after furosemide 10 mg/kg im): inhibited the pressor response to AII at the two higher doses
blood pressure, after furosemide ([5]; conscious dogs, cumulative iv 0.3 to 3 mg/kg after furosemide 10 mg/kg im at 18 and 2 hours before): caused a significant decrease in blood pressure in a dose-dependent manner
blood pressure, before furosemide ([5]; normotensive conscious dogs, cumulative iv 0.3 to 3 mg/kg, n=4): did not lower blood pressure

IC50 ([7]; Table 26): 760 nM
Structure (SMILES): CCCCc1nc(CO)c(Cl)n1Cc1ccc(-c2ccccc2-c2nn[nH]c2C#N)cc1 [Example 337, 2-n-Butyl-5-chloro-1-[(2'-(5-cyano-1,2,3-triazol-4-yl)biphenyl-4-yl)methyl]-4-hydroxymethylimidazole]
minimal effective dose at 3 mg/kg [6]: < 3 mg/kg
minimal effective dose at 30 mg/kg [6]: > 30 mg/kg

IC50 ([7]; Table 25): 270 nM
Structure (SMILES): CCCCc1nc(Cl)c(/C=C/C(=O)OC)n1Cc1ccc(NC(=O)c2ccccc2C(=O)O)cc1 [Example 242]
minimal effective dose at 10 mg/kg [6]: < 10 mg/kg

IC50 [7, 8]: 330 nM
Structure (SMILES): CCCCc1nc(Cl)c(Cc2nnn[nH]2)n1Cc1ccc(C(=O)c2ccccc2C(=O)O)cc1 [Example 208, 2-Butyl-1-[4-(2-carboxybenzoyl)benzyl]-4-chloro-5-[(1H-tetrazol-5-yl)methyl]imidazole]
minimal effective dose at 10 mg/kg ([6]; tested as sodium salt): < 10 mg/kg
minimal effective dose at 100 mg/kg ([6]; tested as sodium salt): > 100 mg/kg

IC50 [7, 8]: 200 nM
Structure (SMILES): CCCCc1nc(Cl)c(CNC(=O)OCC)n1Cc1ccc(-c2ccccc2C(=O)O)cc1 [Example 148, 2-Butyl-1-[(2'-carboxybiphenyl-4-yl)methyl]-4-chloro-5-(ethoxycarbonylaminomethyl)imidazole]
minimal effective dose at 10 mg/kg ([6]; tested as sodium salt): < 10 mg/kg
minimal effective dose at 100 mg/kg ([6]; tested as sodium salt): < 100 mg/kg

IC50 ([7]; Table 25): 90 nM
Structure (SMILES): CCCCc1nc(Cl)c(COC(C)C)n1Cc1ccc(-c2ccccc2C(=O)O)cc1 [Example 99]
minimal effective dose at 10 mg/kg [6]: < 10 mg/kg
minimal effective dose at 100 mg/kg [6]: < 100 mg/kg

IC50 ([7]; Table 26): 1400 nM
Structure (SMILES): CCCCc1nc(C(F)(F)C(F)(F)F)c(C(=O)O)n1Cc1ccc(-c2ccccc2-c2nn[nH]n2)cc1 [Example 265B]
minimal effective dose at 3 mg/kg [6]: < 3 mg/kg
minimal effective dose at 30 mg/kg [6]: < 30 mg/kg

Structure (SMILES): CCCCc1nc(Cl)c(CNC(=O)Oc2ccccc2)n1Cc1ccc(-c2ccccc2C(=O)O)cc1 [Example 149]
minimal effective dose at 10 mg/kg ([6]; tested as sodium salt): < 10 mg/kg
minimal effective dose at 100 mg/kg ([6]; tested as sodium salt): < 100 mg/kg
IC50 [7, 8]: 450 nM

IC50 ([7]; Table 25): 200 nM
Structure (SMILES): CCCCc1nc(Cl)c(COC)n1Cc1ccc(-c2ccccc2C(=O)NNS(=O)(=O)C(F)(F)F)cc1 [Example 176, 2-n-Butyl-4-chloro-5-methoxymethyl-1-[4-(2-(trifluoromethylsulfonylhydrazido)biphenyl-4-yl)methyl]imidazole]
minimal effective dose at 10 mg/kg [6]: < 10 mg/kg
minimal effective dose at 100 mg/kg [6]: > 100 mg/kg

IC50 ([7]; Table 25): 4100 nM
Structure (SMILES): CCCCc1nc(Cl)c(CO)n1Cc1ccc(-c2ccccc2C(=O)NO)cc1 [Example 182]
minimal effective dose at 10 mg/kg [6]: < 10 mg/kg
minimal effective dose at 100 mg/kg [6]: > 100 mg/kg

IC50 ([7]; Table 25): 180 nM
Structure (SMILES): CCCCc1nc(Cl)c(C(=O)NC)n1Cc1ccc(-c2ccccc2C(=O)O)cc1 [Example 134]
minimal effective dose at 10 mg/kg [6]: < 10 mg/kg
minimal effective dose at 100 mg/kg [6]: < 100 mg/kg

IC50 ([7]; Table 25): 740 nM
Structure (SMILES): CCCCc1nc(Cl)c(CN2CCN(c3ccccc3OC)CC2)n1Cc1ccc(-c2ccccc2C(=O)O)cc1 [Example 346, 2-n-Butyl-1-[(2'-carboxybiphenyl-4-yl)methyl]-4-chloro-5-[(1-(2-methoxyphenyl)piperazin-4-yl)methyl]imidazole]
minimal effective dose at 10 mg/kg [6]: < 10 mg/kg

IC50 ([7]; Table 25): 3000 nM
Structure (SMILES): CCCCc1nccn1Cc1ccc(NC(=O)c2ccccc2NS(=O)(=O)C(F)(F)F)cc1 [Example 59]
minimal effective dose at 10 mg/kg [6]: > 100 mg/kg
minimal effective dose at 100 mg/kg [6]: > 100 mg/kg
